The results in this text go back to patent US10780090B2, “Heteroaryl compounds useful as inhibitors of SUMO activating enzyme” (Millennium Pharmaceuticals, Inc., priority 2014, dated 2020).

A value given as a limit tells only on which side of the number the result lay.

For the assay, the target named is recombinant human SAE enzyme (Homo sapiens (Human), UniProt Q9UBT2). Put plainly: SAE HTRF enzyme assay. It is filed as biochemical. As to conditions: for Percent Inhibition: Concentration 0.111 μM; for IC50: class symbols A/B/C. In outline:
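Human SAE (0.11 nM) with 0.5 μM ATP, 0.125 μM Sumo-Flag and 0.01 μM Ubc9-GST in HEPES pH 7.5, 5 mM MgCl2, 250 μM GSH; 105 min at 24 °C. Stopped with EDTA; HTRF read after 2 h with Eu-anti-Flag and APC-anti-GST. Percent inhibition or IC50 reported.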
In general terms: Time-resolved FRET reads energy transfer from a long-lived donor to a nearby acceptor.

Sequence of recombinant human SAE enzyme (Q9UBT2 whole entry): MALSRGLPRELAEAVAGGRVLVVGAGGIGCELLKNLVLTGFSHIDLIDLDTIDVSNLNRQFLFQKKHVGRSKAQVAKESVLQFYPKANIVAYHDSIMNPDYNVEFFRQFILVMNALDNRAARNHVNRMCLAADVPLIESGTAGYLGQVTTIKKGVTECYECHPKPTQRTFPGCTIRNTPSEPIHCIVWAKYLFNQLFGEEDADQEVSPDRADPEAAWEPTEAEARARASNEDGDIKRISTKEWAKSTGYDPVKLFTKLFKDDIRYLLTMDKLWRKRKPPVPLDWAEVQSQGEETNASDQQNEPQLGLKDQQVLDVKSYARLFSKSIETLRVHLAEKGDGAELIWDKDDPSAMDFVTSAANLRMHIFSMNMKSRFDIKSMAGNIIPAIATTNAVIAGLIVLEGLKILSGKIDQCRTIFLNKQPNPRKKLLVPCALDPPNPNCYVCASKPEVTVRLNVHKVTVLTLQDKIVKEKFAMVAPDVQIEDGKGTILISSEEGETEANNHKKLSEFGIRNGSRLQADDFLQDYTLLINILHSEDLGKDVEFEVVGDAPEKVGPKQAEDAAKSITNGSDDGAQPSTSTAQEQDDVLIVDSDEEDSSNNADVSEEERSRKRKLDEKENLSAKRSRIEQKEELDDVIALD
Sequence of recombinant human SAE enzyme (Q9UBE0 whole entry partner): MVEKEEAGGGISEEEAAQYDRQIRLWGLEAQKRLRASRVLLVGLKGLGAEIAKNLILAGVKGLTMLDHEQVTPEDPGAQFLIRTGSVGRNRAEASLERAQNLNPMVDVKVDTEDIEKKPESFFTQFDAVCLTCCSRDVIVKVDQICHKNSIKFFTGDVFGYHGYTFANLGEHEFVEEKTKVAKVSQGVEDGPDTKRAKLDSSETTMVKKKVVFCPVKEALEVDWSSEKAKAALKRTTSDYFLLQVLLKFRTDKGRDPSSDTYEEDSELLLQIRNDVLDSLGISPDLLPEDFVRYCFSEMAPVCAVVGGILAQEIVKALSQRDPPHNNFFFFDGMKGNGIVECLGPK

As to `Cc1sc(C(=O)c2cncnc2N[C@@H]2C[C@H](COS(N)(=O)=O)[C@@H](O)[C@@H]2F)cc1[C@H]1OCCc2ccc(Cl)cc21` (single isomer, unassigned) [I-264b, [(1R,2R,3R,4R)-4-{[5-({4-[(1S)-7-chloro-3,4-dihydro-1H-isochromen-1-yl]-5-methyl-2-thienyl}carbonyl)pyrimidin-4-yl]amino}-3-fluoro-2-hydroxycyclopentyl]methyl sulfamate or [(1R,2R,3R,4R)-4-{[5-({4-[(1R)-7-chloro-3,4-dihydro-1H-isochromen-1-yl]-5-methyl-2-thienyl}carbonyl)pyrimidin-4-yl]amino}-3-fluoro-2-hydroxycyclopentyl]methyl sulfamate], the “Percent Inhibition” value was determined as 98 and the IC50 is less than 0.01 µM.
In the same order, the values of `CN1Cc2ccc(Cl)cc2[C@@H]1c1csc(C(=O)c2cncnc2N[C@@H]2C[C@H](COS(N)(=O)=O)[C@@H](O)C2)c1` (single isomer, unassigned) [I-265a, [(1R,2S,4R)-4-{[5-({4-[(1R)-6-chloro-2-methyl-2,3-dihydro-1H-isoindol-1-yl]-2-thienyl}carbonyl)pyrimidin-4-yl]amino}-2-hydroxycyclopentyl]methyl sulfamate or [(1R,2S,4R)-4-{[5-({4-[(1S)-6-chloro-2-methyl-2,3-dihydro-1H-isoindol-1-yl]-2-thienyl}carbonyl)pyrimidin-4-yl]amino}-2-hydroxycyclopentyl]methyl sulfamate] are 99 and less than 0.01 µM.
On to `CN1Cc2ccc(Cl)cc2[C@@H]1c1csc(C(=O)c2cncnc2N[C@@H]2C[C@H](COS(N)(=O)=O)[C@@H](O)C2)c1` (single isomer, unassigned) [I-265b, [(1R,2S,4R)-4-{[5-({4-[(1R)-6-chloro-2-methyl-2,3-dihydro-1H-isoindol-1-yl]-2-thienyl}carbonyl)pyrimidin-4-yl]amino}-2-hydroxycyclopentyl]methyl sulfamate or [(1R,2S,4R)-4-{[5-({4-[(1S)-6-chloro-2-methyl-2,3-dihydro-1H-isoindol-1-yl]-2-thienyl}carbonyl)pyrimidin-4-yl]amino}-2-hydroxycyclopentyl]methyl sulfamate], for which the “Percent Inhibition” value amounted to 72 and the concentration for half-maximal inhibition (IC50) was in the range of 0.01 to 0.1 µM.
As to `NS(=O)(=O)OC[C@H]1C[C@@H](Nc2ncncc2C(=O)c2cc([C@@H]3OCCc4cccnc43)c(Cl)s2)C[C@@H]1O` (single isomer, unassigned) [I-266a, [(1R,2S,4R)-4-{[5-({5-chloro-4-[(8S)-5,8-dihydro-6H-pyrano[3,4-b]pyridin-8-yl]-2-thienyl}carbonyl)pyrimidin-4-yl]amino}-2-hydroxycyclopentyl]methyl sulfamate or [(1R,2S,4R)-4-{[5-({5-chloro-4-[(8R)-5,8-dihydro-6H-pyrano[3,4-b]pyridin-8-yl]-2-thienyl}carbonyl)pyrimidin-4-yl]amino}-2-hydroxycyclopentyl]methyl sulfamate], the “Percent Inhibition” value is reported as 41 and the IC50 is 0.1 to 1 µM.
Consider `NS(=O)(=O)OC[C@H]1C[C@@H](Nc2ncncc2C(=O)c2cc([C@@H]3OCCc4cccnc43)c(Cl)s2)C[C@@H]1O` (single isomer, unassigned) [I-266b, [(1R,2S,4R)-4-{[5-({5-chloro-4-[(8S)-5,8-dihydro-6H-pyrano[3,4-b]pyridin-8-yl]-2-thienyl}carbonyl)pyrimidin-4-yl]amino}-2-hydroxycyclopentyl]methyl sulfamate or [(1R,2S,4R)-4-{[5-({5-chloro-4-[(8R)-5,8-dihydro-6H-pyrano[3,4-b]pyridin-8-yl]-2-thienyl}carbonyl)pyrimidin-4-yl]amino}-2-hydroxycyclopentyl]methyl sulfamate], for which the “Percent Inhibition” value is on record as 100 and the IC50 was less than 0.01 µM.
In the case of `NS(=O)(=O)OC[C@H]1C[C@@H](Nc2ncncc2C(=O)c2cc([C@@H]3OCCc4ccc(F)cc43)cs2)C[C@@H]1O` (single isomer, unassigned) [I-267, [(1R,2S,4R)-4-{[5-({4-[(1R)-7-Fluoro-3,4-dihydro-1H-isochromen-1-yl]-2-thienyl}carbonyl)pyrimidin-4-yl]amino}-2-hydroxycyclopentyl]methyl sulfamate or [(1R,2S,4R)-4-{[5-({4-[(1S)-7-Fluoro-3,4-dihydro-1H-isochromen-1-yl]-2-thienyl}carbonyl)pyrimidin-4-yl]amino}-2-hydroxycyclopentyl]methyl sulfamate], the “Percent Inhibition” value is 97 and the IC50 was less than 0.01 µM.
As to `NS(=O)(=O)OC[C@H]1C[C@@H](Nc2ncncc2C(=O)c2cc([C@@H]3OCCc4ccc(F)cc43)cs2)C[C@@H]1O` (single isomer, unassigned) [I-267a, [(1R,2S,4R)-4-{[5-({4-[(1R)-7-fluoro-3,4-dihydro-1H-isochromen-1-yl]-2-thienyl}carbonyl)pyrimidin-4-yl]amino}-2-hydroxycyclopentyl]methyl sulfamate or [(1R,2S,4R)-4-{[5-({4-[(1S)-7-fluoro-3,4-dihydro-1H-isochromen-1-yl]-2-thienyl}carbonyl)pyrimidin-4-yl]amino}-2-hydroxycyclopentyl]methyl sulfamate], the “Percent Inhibition” value is on record as 65 and the IC50 was 0.01 to 0.1 µM.
In the case of `NS(=O)(=O)OC[C@H]1C[C@@H](Nc2ncncc2C(=O)c2cc([C@@H]3OCCc4ccc(F)cc43)cs2)C[C@@H]1O` (single isomer, unassigned) [I-267b, [(1R,2S,4R)-4-{[5-({4-[(1R)-7-fluoro-3,4-dihydro-1H-isochromen-1-yl]-2-thienyl}carbonyl)pyrimidin-4-yl]amino}-2-hydroxycyclopentyl]methyl sulfamate or [(1R,2S,4R)-4-{[5-({4-[(1S)-7-fluoro-3,4-dihydro-1H-isochromen-1-yl]-2-thienyl}carbonyl)pyrimidin-4-yl]amino}-2-hydroxycyclopentyl]methyl sulfamate], the “Percent Inhibition” value is listed as 100 and the IC50 is less than 0.01 µM.
For the compound `NS(=O)(=O)OC[C@H]1C[C@@H](Nc2ncncc2C(=O)c2cc([C@@H]3OCCc4ccc(Br)cc43)cs2)C[C@@H]1O` (single isomer, unassigned) [I-268a, [(1R,2S,4R)-4-{[5-({4-[(1R)-7-bromo-3,4-dihydro-1H-isochromen-1-yl]-2-thienyl}carbonyl)pyrimidin-4-yl]amino}-2-hydroxycyclopentyl]methyl sulfamate or [(1R,2S,4R)-4-{[5-({4-[(1S)-7-bromo-3,4-dihydro-1H-isochromen-1-yl]-2-thienyl}carbonyl)pyrimidin-4-yl]amino}-2-hydroxycyclopentyl]methyl sulfamate], the “Percent Inhibition” value is on record as 50 and the IC50 lay in the range of 0.1 to 1 µM.
On to `NS(=O)(=O)OC[C@H]1C[C@@H](Nc2ncncc2C(=O)c2cc([C@@H]3OCCc4ccc(Br)cc43)cs2)C[C@@H]1O` (single isomer, unassigned) [I-268b, [(1R,2S,4R)-4-{[5-({4-[(1R)-7-bromo-3,4-dihydro-1H-isochromen-l-yl]-2-thienyl}carbonyl)pyrimidin-4-yl]amino}-2-hydroxycyclopentyl]methyl sulfamate or [(1R,2S,4R)-4-{([5-({4-[(1S)-7-bromo-3,4-dihydro-1H-isochromen-1-yl]-2-thienyl}carbonyl)pyrimidin-4-yl]amino}-2-hydroxycyclopentyl]methyl sulfamate], for which the “Percent Inhibition” value was determined as 102 and the IC50 is less than 0.01 µM.

What is called IC50 is the concentration needed to halve the response being measured.
